Test results from patent publication US9492465B2, “Gold(I) complexes with t-butyl phosphine and dialkyl dithiocarbamate ligands” (KING FAHD UNIVERSITY OF PETROLEUM AND MINERALS, priority 2014, dated 2016).
pIC50: −log10 of the molar value.

Experiments:
Format in all cases: cell-based
[1] = tested on: MCF7 (human breast cancer) cell line; assay: in vitro cytotoxicity, MTT assay, MCF7 cell line; conditions: 24 h exposure, read-out: IC50 Values against MCF7
Experimental: Metal precursor and two synthesized compound (1)and compound (2) were evaluated for their in-vitro cytotoxic activity against MCF7 (human breast cancer), HeLa (human cervical cancer) and A549 (human lung carcinoma) cell lines.
(§1) The cells were seeded at 4×10^3 cells/well in 100 μL DMEM (Dulbecco's Modified Eagle's Medium) containing 10%. FBS (Fetal Bovine Serum) in 96-wells tissue culture plate and incubated for 72 h at 37° C., 5% CO2 in air and 90% relative humidity in CO2 incubator. After incubation, 100 μL of complex (0),(1)and (2) (50, 25, 12.5, 6.25 and 3.12 μg/mL), prepared in DMEM, was added to cells and the cultures were incubated for 24 h. The medium of wells was discarded and 100 μL DMEM containing MTT (3-(4,5-Dimethylthiazol-2-Yl)-2,5-Diphenyltetrazolium Bromide) (5 mg/mL) was added to the wells and incubated in CO2 incubator at 37° C. in dark for 4 h. After incubation, a purple colored formazan (artificial chromogenic dye, product of the reduction of water insoluble tetrazolium salts e.g., MMT by dehydrogenases and reductases) in the cells is produced and appeared as dark crystals in the bottom of the wells. The medium of culture was discarded from each well carefully to avoid disruption of monolayer and 100 μL of Dimethylsufoxide (DMSO) was added in each well. The solution was thoroughly mixed in the wells to dissolve the formazan crystals which ultimately result into a purple solution. The absorbance of the 96-wells plate was taken at 570 nm with Labsystems Multiskan EX-Enzyme-linked immunosorbent assay (EX-ELISA) reader against a reagent blank.
The in vitro cytotoxicity tests were evaluated for the gold(I) precursor, labeled as (0) and two synthesized complexes labeled as (1) and (2)against three human cancer cell lines, MCF7, HeLa and A549 using MTT assay. The dose dependent cytotoxic effect was obtained by the stipulated increase in concentrations of complexes (0), (1) and (2) against the fixed number of human cancer cells. […] FIG. 3 is a graph of the in vitro cytotoxic effect of series of concentrations of compound (0) on MCF7 cell line. […]

[2] = tested on: HeLa (human cervical cancer) cell line; assay: in vitro cytotoxicity, MTT assay, HeLa cell line; conditions: for pIC50: HeLa cell line, 24 h exposure, read-out: IC50 Values against HeLa; for pIC50 / percent viability of HeLa: MTT; for percent viability of HeLa: 24 h; for cytotoxic effects on HeLa cell line compared with Auranofin: 50 μg/mL concentration
Experimental: as §1, with “After incubation, 100 μL of complex (0),(1)and (2) (50, 25, 12.5, 6.25 and 3.12 μg/mL), prepared in DMEM, was added to cells and the cultures were incubated for 24 h.” left out
(§2) The in vitro cytotoxicity tests were evaluated for the gold(I) precursor, labeled as (0) and two synthesized complexes labeled as (1) and (2)against three human cancer cell lines, MCF7, HeLa and A549 using MTT assay.

[3] = tested on: A549 (human lung carcinoma) cell line; assay: in vitro cytotoxicity, MTT assay, A549 cell line; conditions: 24 h exposure, read-out: IC50 Values against A549
Experimental: as §1, with “After incubation, 100 μL of complex (0),(1)and (2) (50, 25, 12.5, 6.25 and 3.12 μg/mL), prepared in DMEM, was added to cells and the cultures were incubated for 24 h.” left out
as §2

[4] = concentration 3.12 (title μM, head iM)
[5] = concentration 6.25 (title μM, head iM)
[6] = concentration 12.5 (title μM, head iM)
[7] = concentration 25 (title μM, head iM)
[8] = concentration 50 (title μM, head iM)

| Compound | pIC50 [1] | pIC50 [2] | percent viability of HeLa [2, 4] [%] | percent viability of HeLa [2, 5] [%] | percent viability of HeLa [2, 6] [%] | percent viability of HeLa [2, 7] [%] | percent viability of HeLa [2, 8] [%] | pIC50 [3] | cytotoxic effects on HeLa cell line compared with Auranofin [2] |
| --- | --- | --- | --- | --- | --- | --- | --- | --- | --- |
| CC(C)(C)P(C(C)(C)C)C(C)(C)C.[Cl][Au] [Complex (0), [Au{P(t-Bu)3}(Cl)], reference compound] | 4.78 | 4.80 | 93.6 ± 2.4 | 89.5 ± 2.3 | 81.9 ± 1.9 | 27.3 ± 1.5 | 12.4 ± 1.1 | 4.85 | – |
| CN(C)C(=S)[S][Au][PH](C(C)(C)C)(C(C)(C)C)C(C)(C)C [Complex (1), [Au{P(t-Bu)3}(S2CN(CH3)2)]] | 4.68 | 5.68 | 50.6 ± 1.5 | 34.4 ± 0.9 | 19.5 ± 1.4 | 15.3 ± 1.1 | 8.7 ± 1.2 | 4.57 | better than Auranofin |
| CCN(CC)C(=S)[S][Au][PH](C(C)(C)C)(C(C)(C)C)C(C)(C)C [Complex (2), [Au{P(t-Bu)3}(S2CN(C2H5)2)]] | 4.79 | 5.49 | 53.9 ± 1.9 | 38.6 ± 1.2 | 27.9 ± 1.0 | 22.9 ± 1.2 | 9.41 ± 1.16 | 4.71 | better than Auranofin |
